“Also recorded” adds a separate entry of the source.
Experiments:
HIV-1/NL4-3 = type: cell-based; conditions: for IC50 NL4-3: wild-type HIV-1/NL4-3 replication, mean ± SD of three separate experiments, NS = no selective anti-HIV activity (CC50/IC50 < 5)
in vitro metabolic = type: in vitro ADME; conditions: human, microsomes
[1] = tested on: NL4-3 infection of TZM-bl cells; test: TZM-bl assay; type: cell-based, HIV-1; conditions: at 2 µM; average of two tests
NL4-3/V370A = type: cell-based, HIV-1; conditions: IC50(NL4-3/V370A)/IC50(NL4-3) ratio
[2] = tested on: NL4-3 Env-mediated cell–cell fusion; test: fusion assay; type: cell-based, HIV-1; conditions: average of two independent tests
[3] = human, in vivo; cited from earlier work
HIV in MT-4 cells = conditions: cited from earlier work; for IC50: read-out: IC50, anti-HIV activity in MT-4 cells
HIV-1 integrase = conditions: cited from earlier work
[4] = tested on: HIV replication in MT-2 cell; conditions: read-out: IC50, HIV replication in MT-2 cells; cited from earlier work

Compound: O=C(/C=C/c1ccc2c(c1)OCO2)N1CCNCC1 [14c]
- IC50 NL4-3 (HIV-1/NL4-3): inactive

Compound: C=C(C)[C@@H]1CC[C@]2(C(=O)N3CCN(C(=O)/C=C/c4ccc5c(c4)OCO5)CC3)CC[C@]3(C)[C@H](CC[C@@H]4[C@@]5(C)CC[C@H](OC(=O)CC(C)(C)C(=O)O)C(C)(C)[C@@H]5CC[C@]43C)[C@@H]12 [18c]
- microsomal CLint (in vitro metabolic): 54 µL/min/mg
- inhibition of NL4-3 infection of TZM-bl cells [1]: no inhibition; also recorded: no activity
- RFC (resistance fold change) (NL4-3/V370A): 7.89
- inhibition of NL4-3 Env-mediated cell–cell fusion [2]: no activity; also recorded: did not inhibit

Compound: C=C(C)[C@@H]1CC[C@]2(C(=O)NCCCCCCCNC(C)=O)CC[C@]3(C)[C@H](CC[C@@H]4[C@@]5(C)CC[C@H](O)C(C)(C)[C@@H]5CC[C@]43C)[C@@H]12 [A43D]
- inhibition of NL4-3 infection of TZM-bl cells [1]: totally inhibited
- inhibition of NL4-3 Env-mediated cell–cell fusion [2]: strongly inhibited

Compound: C=C(C)[C@@H]1CC[C@]2(C(=O)O)CC[C@]3(C)[C@H](CC[C@@H]4[C@@]5(C)CC[C@H](OC(=O)CC(C)(C)C(=O)O)C(C)(C)[C@@H]5CC[C@]43C)[C@@H]12 [compound 2, 3-O-(3′,3′-dimethylsuccinyl)-betulinic acid]
- inhibition of NL4-3 infection of TZM-bl cells [1]: no inhibition
- inhibition of NL4-3 Env-mediated cell–cell fusion [2]: no activity
- elimination half-life t1/2 [3]: 56.3 to 69.5 h

Compound: O=C(O)/C=C/c1ccc(O)c(O)c1 [compound 5, 3,4-dihydroxycinnamic acid]
- IC50 NL4-3 (HIV-1/NL4-3): no selectivity

Compound: O=C(/C=C/c1cc(O)c(O)cc1[N+](=O)[O-])O[C@H](Cc1cc(O)c(O)cc1[N+](=O)[O-])C(=O)O [compound 6, 6′,6″-Dinitrorosmarinic acid]
- anti-HIV activity in MT-4 cells (HIV in MT-4 cells): moderate anti-HIV activity
- HIV-1 integrase inhibition (HIV-1 integrase): potent HIV-1 integrase inhibition

Compound: O=C(/C=C/c1ccc(O)c2c1[C@H](C(=O)O)[C@@H](c1ccc(O)c(O)c1)O2)O[C@H](Cc1ccc(O)c(O)c1)C(=O)O [compound 7, (+)-Lithospermic acid]
- HIV-1 integrase inhibitory activity (HIV-1 integrase): submicromolar range

Compound: O=C(/C=C/c1ccc(O)c(O)c1)O[C@@H]1C[C@](O)(C(=O)O)C[C@@H](OC(=O)/C=C/c2ccc(O)c(O)c2)[C@H]1O [compound 8, 3,5-Dicaffeoylquinic acid]
- HIV-1 integrase inhibitory activity (HIV-1 integrase): active against HIV-1 integrase

Compound: C=C(C)[C@@H]1CC[C@]2(C(=O)N3CCNCC3)CC[C@]3(C)[C@H](CC[C@@H]4[C@@]5(C)CC[C@H](OC(=O)CC(C)(C)C(=O)O)C(C)(C)[C@@H]5CC[C@]43C)[C@@H]12 [compound 20]
- fold less active than 2 against NL4-3 (HIV-1/NL4-3; compared with 2): 8 fold

Compound: (+)-erythro-7′-methylcarolignan E [11a]
- IC50 (HIV in MT-4 cells): 6.3 µM

Compound: (−)-erythro-7′-methylcarolignan E [11b]
- IC50 (HIV in MT-4 cells): 5.3 µM

Compound: L-Chicoric acid [compound 9]
- IC50 [4]: 4.2 µM
